How the values were obtained:
Experiment in all cases: Test E pre-/postemergence herbicide test
johnsongrass = type: in vivo, Sorghum halepense
How it was run: (§1)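 In this greenhouse assay, compounds in a solvent vehicle containing surfactant were applied pre- and postemergence, the latter to plants 2 to 18 cm high. Control was judged by eye after 12 to 14 days on a 0 to 100 scale.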

common ragweed = type: in vivo, Ambrosia elatior
How it was run: as §1

large crabgrass = type: in vivo, Digitaria sanguinalis
How it was run: as §1

dallisgrass = type: in vivo, Paspalum dilatatum
How it was run: as §1

bipinnate beggarticks = type: in vivo, Bidens bipinnata; settings: scale 0 to 100
Text: Seeds of plant species selected from bipinnate beggarticks (Bidens bipinnata L.), hairy beggarticks (Bidens radiata Thuill.), bermudagrass (Cynodon dactylon (L.) Pers.), Surinam grass (Urochloa decumbens (Staph) R. D. Webster, previously named Brachiaria decumbens Stapf), large crabgrass (Digitaria sanguinalis (L.) Scop.), green foxtail (Setaria viridis (L.) P. Beauv.), goosegrass (Eleusine indica (L.) Gaertn.), johnsongrass (Sorghum halepense (L.) Pers.), kochia (Kochia scoparia (L.) Schrad.), pitted morningglory (Ipomoea lacunosa L.), purple nutsedge (Cyperus rotundus L.), common ragweed (Ambrosia elatior L.), mustard (Brassica nigra (L.) W. D. J. Koch), guineagrass (Panicum maximum Jacq.), dallisgrass (Paspalum dilatatum Poir.), barnyardgrass (Echinochloa crus-galli (L). P. Beauv.), southern sandbur (Cenchrus echinatus L.), common sowthistle (Sonchus oleraceous L.), prickly sida (Sida spinosa L.), Italian ryegrass (Lolium multiflorum Lam.), common purslane (Portulaca oleracea L.), broadleaf signalgrass (Brachiaria platyphylla (Griseb.) Nash), common groundsel (Senecio vulgaris L.), common chickweed (Stellaria media (L.) Vill/Cyr.), tropical spiderwort (Commelina benghalensis L.), annual bluegrass (Poa annua L.), downy bromegrass (Bromus tectorum L.), itchgrass (Rottboellia cochinchinensis (L.) L.f.), quackgrass (Elytrigia repens (L.) Nevski), Canada horseweed (Erigeron Canadensis L.), field bindweed (Convolvulus arvensis L.), spotted spurge (Euphorbia maculata L.), common mallow (Malva sylvestris (=s silvestris) L.), and Russian thistle (Salsola kali L. ssp. Ruthenica (Iljin) Soo) were planted and treated preemergence with test chemicals formulated in a non-phytotoxic solvent mixture which included a surfactant.
At the same time, plants selected from these weed species were treated with postemergence applications of some of the test chemicals formulated in the same manner. Plants ranged in height from 2 to 18 cm (1- to 4-leaf stage) for postemergence treatments. Treated plants and controls were maintained in a greenhouse for 12 to 14 days, after which time all species were compared to controls and visually evaluated. Plant response ratings, summarized in Table E, are based on a scale of 0 to 100 where 0 is no effect and 100 is complete control. A dash (-) response means no test result.

southern sandbur = type: in vivo, Cenchrus echinatus
How it was run: as §1

goosegrass = type: in vivo, Eleusine indica
How it was run: as §1

green foxtail = type: in vivo, Setaria viridis
How it was run: as §1

annual bluegrass = type: in vivo, Poa annua
How it was run: as §1

prickly sida = type: in vivo, Sida spinosa
How it was run: as §1

[1] = Postemergence, 500 g ai/ha, scale 0 to 100
[2] = Postemergence, 250 g ai/ha, scale 0 to 100
[3] = Preemergence, 125 g ai/ha, scale 0 to 100
[4] = Preemergence, 250 g ai/ha, scale 0 (no effect) to 100 (complete control)
[5] = Preemergence, 375 g ai/ha, scale 0 (no effect) to 100 (complete control)
[6] = Preemergence, 500 g ai/ha, scale 0 (no effect) to 100 (complete control)
[7] = postemergence, 125 g ai/ha, scale 0 to 100
[8] = postemergence, 62 g ai/ha, scale 0 to 100

SMILES: CCn1nc(C(C)(C)C)cc1C(=O)Nc1cc(C(=S)N(C)C)ccc1F [Compound 294]
- Plant response rating, Johnsongrass (johnsongrass; [1]): 90
- Plant response rating, Johnsongrass (johnsongrass; [2]): 80
- Plant response rating, Johnsongrass (johnsongrass; [3]): 30
- Plant response rating, Johnsongrass (johnsongrass; [4]): 75
- Plant response rating, Johnsongrass (johnsongrass; [5]): 85
- Plant response rating, Johnsongrass (johnsongrass; [6]): 85
- Plant response rating, Johnsongrass (johnsongrass; [7]): 70
- Plant response rating, Johnsongrass (johnsongrass; [8]): 40
- Plant response rating, Ragweed (common ragweed; [1]): 80
- Plant response rating, Ragweed (common ragweed; [2]): 70
- Plant response rating, Ragweed (common ragweed; [3]): 75
- Plant response rating, Ragweed (common ragweed; [4]): 85
- Plant response rating, Ragweed (common ragweed; [5]): 100
- Plant response rating, Ragweed (common ragweed; [6]): 100
- Plant response rating, Ragweed (common ragweed; [7]): 60
- Plant response rating, Ragweed (common ragweed; [8]): 30
- Plant response rating, Crabgrass, Large (large crabgrass; [1]): 80
- Plant response rating, Crabgrass, Large (large crabgrass; [2]): 75
- Plant response rating, Crabgrass, Large (large crabgrass; [3]): 75
- Plant response rating, Crabgrass, Large (large crabgrass; [4]): 95
- Plant response rating, Crabgrass, Large (large crabgrass; [5]): 100
- Plant response rating, Crabgrass, Large (large crabgrass; [6]): 100
- Plant response rating, Crabgrass, Large (large crabgrass; [7]): 70
- Plant response rating, Crabgrass, Large (large crabgrass; [8]): 40
- Plant response rating, Dallisgrass (dallisgrass; [1]): 70
- Plant response rating, Dallisgrass (dallisgrass; [2]): 60
- Plant response rating, Dallisgrass (dallisgrass; [3]): 75
- Plant response rating, Dallisgrass (dallisgrass; [4]): 80
- Plant response rating, Dallisgrass (dallisgrass; [5]): 95
- Plant response rating, Dallisgrass (dallisgrass; [6]): 95
- Plant response rating, Dallisgrass (dallisgrass; [7]): 40
- Plant response rating, Dallisgrass (dallisgrass; [8]): 10
- Plant response rating, Beggarticks, Bip. (bipinnate beggarticks; Postemergence, 500 g ai/ha): 75
- Plant response rating, Beggarticks, Bip. (bipinnate beggarticks; Postemergence, 250 g ai/ha): 70
- Plant response rating, Beggarticks, Bip. (bipinnate beggarticks; postemergence, 125 g ai/ha): 60
- Plant response rating, Beggarticks, Bip. (bipinnate beggarticks; postemergence, 62 g ai/ha): 40
- Plant response rating, Sandbur (southern sandbur; [1]): 80
- Plant response rating, Sandbur (southern sandbur; [2]): 75
- Plant response rating, Sandbur (southern sandbur; [3]): 70
- Plant response rating, Sandbur (southern sandbur; [4]): 80
- Plant response rating, Sandbur (southern sandbur; [5]): 95
- Plant response rating, Sandbur (southern sandbur; [6]): 100
- Plant response rating, Sandbur (southern sandbur; [7]): 50
- Plant response rating, Sandbur (southern sandbur; [8]): 10
- Plant response rating, Goosegrass (goosegrass; [1]): 85
- Plant response rating, Goosegrass (goosegrass; [2]): 80
- Plant response rating, Goosegrass (goosegrass; [3]): 95
- Plant response rating, Goosegrass (goosegrass; [4]): 95
- Plant response rating, Goosegrass (goosegrass; [5]): 100
- Plant response rating, Goosegrass (goosegrass; [6]): 100
- Plant response rating, Goosegrass (goosegrass; [7]): 60
- Plant response rating, Goosegrass (goosegrass; [8]): 50
- Plant response rating, Foxtail, Green (green foxtail; [1]): 85
- Plant response rating, Foxtail, Green (green foxtail; [2]): 80
- Plant response rating, Foxtail, Green (green foxtail; [3]): 80
- Plant response rating, Foxtail, Green (green foxtail; [4]): 100
- Plant response rating, Foxtail, Green (green foxtail; [5]): 100
- Plant response rating, Foxtail, Green (green foxtail; [6]): 100
- Plant response rating, Foxtail, Green (green foxtail; [7]): 60
- Plant response rating, Foxtail, Green (green foxtail; [8]): 40
- Plant response rating, Bluegrass (annual bluegrass; [1]): 95
- Plant response rating, Bluegrass (annual bluegrass; [2]): 95
- Plant response rating, Bluegrass (annual bluegrass; [3]): 95
- Plant response rating, Bluegrass (annual bluegrass; [4]): 95
- Plant response rating, Bluegrass (annual bluegrass; [5]): 95
- Plant response rating, Bluegrass (annual bluegrass; [6]): 100
- Plant response rating, Bluegrass (annual bluegrass; [7]): 95
- Plant response rating, Bluegrass (annual bluegrass; [8]): 95
- Plant response rating, Prickly Sida (prickly sida; [1]): 100
- Plant response rating, Prickly Sida (prickly sida; [2]): 80
- Plant response rating, Prickly Sida (prickly sida; [3]): 100
- Plant response rating, Prickly Sida (prickly sida; [4]): 100
- Plant response rating, Prickly Sida (prickly sida; [5]): 100
- Plant response rating, Prickly Sida (prickly sida; [6]): 100
- Plant response rating, Prickly Sida (prickly sida; [7]): 70
- Plant response rating, Prickly Sida (prickly sida; [8]): 50

From patent US20060069132A1, “Azolecarboxamide herbicides” (priority 2004, published 2006)
